# Laboratory results published in ChEMBL document CHEMBL1201862, “PubChem BioAssay data set” (2004).
#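 Tested at 5 concentrations; 48 h exposure; 96-well plates; endpoints linearly interpolated, else capped at highest concentration. GI50 = concentration required for 50% inhibition of growth.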 Activity calls are given as the source filed them. No stated cut-off is given here; in the data, active = GI50 up to about 1.1 µM and inactive = higher.
# Key:
# Assay in all cases: NCI anticancer screen, dose series, 48 h
# 786-0 = system: 786-0
# A498 = system: A498
# A549 = system: A549
# ACHN = system: ACHN
# BT-549 = system: BT-549
# CAKI-1 = system: CAKI-1
# CCRF-CEM = system: CCRF-CEM
# COLO 205 = system: COLO 205
# DU-145 = system: DU-145
# EKVX = system: EKVX
# HCC 2998 = system: HCC 2998
# HCT-116 = system: HCT-116
# HCT-15 = system: HCT-15
# HL-60 = system: HL-60
# HOP-62 = system: HOP-62
# HOP-92 = system: HOP-92
# HT-29 = system: HT-29
# Hs-578T = system: Hs-578T
# IGROV-1 = system: IGROV-1
# K562 = system: K562
# KM12 = system: KM12
# LOX IMVI = system: LOX IMVI
# M14 = system: M14
# MCF7 = system: MCF7
# MDA-MB-231 = system: MDA-MB-231
# MDA-MB-435 = system: MDA-MB-435
# MDA-N = system: MDA-N
# MOLT-4 = system: MOLT-4
# Malme-3M = system: Malme-3M
# NCI-H226 = system: NCI-H226
# NCI-H23 = system: NCI-H23
# NCI-H460 = system: NCI-H460
# NCI-H522 = system: NCI-H522
# NCI/ADR-RES = system: NCI/ADR-RES
# OVCAR-3 = system: OVCAR-3
# OVCAR-4 = system: OVCAR-4
# OVCAR-5 = system: OVCAR-5
# OVCAR-8 = system: OVCAR-8
# PC-3 = system: PC-3
# RPMI-8226 = system: RPMI-8226
# RXF 393 = system: RXF 393
# SF-268 = system: SF-268
# SF-295 = system: SF-295
# SF-539 = system: SF-539
# SK-MEL-28 = system: SK-MEL-28
# SK-MEL-2 = system: SK-MEL-2
# SK-MEL-5 = system: SK-MEL-5
# SK-OV-3 = system: SK-OV-3
# SN12C = system: SN12C
# SNB-19 = system: SNB-19
# SNB-75 = system: SNB-75
# SR = system: SR
# SW-620 = system: SW-620
# T47D = system: T47D
# TK-10 = system: TK-10
# U-251 = system: U-251
# UACC-257 = system: UACC-257
# UACC-62 = system: UACC-62
# UO-31 = system: UO-31
compound,measurement,setting,value
N/N=C(/C=C1\C(=O)Nc2ccccc21)c1ccccc1,GI50,786-0,25.3 µM (inactive)
same,GI50,A498,28.5 µM (inactive)
same,GI50,A549,29.6 µM (inactive)
same,GI50,ACHN,45.1 µM (inactive)
same,GI50,BT-549,15.4 µM (inactive)
same,GI50,CAKI-1,24.3 µM (inactive)
same,GI50,CCRF-CEM,13.2 µM (inactive)
same,GI50,COLO 205,19.9 µM (inactive)
same,GI50,DU-145,37.2 µM (inactive)
same,GI50,EKVX,32.9 µM (inactive)
same,GI50,HCC 2998,20 µM (inactive)
same,GI50,HCT-116,15.3 µM (inactive)
same,GI50,HCT-15,8.43 µM
same,GI50,HL-60,3.8 µM (inactive)
same,GI50,HOP-62,32.9 µM (inactive)
same,GI50,HOP-92,24.5 µM (inactive)
same,GI50,HT-29,19.9 µM (inactive)
same,GI50,Hs-578T,15.4 µM (inactive)
same,GI50,IGROV-1,30.4 µM (inactive)
same,GI50,K562,5.45 µM (inactive)
same,GI50,KM12,11.1 µM (inactive)
same,GI50,LOX IMVI,22.2 µM (inactive)
same,GI50,M14,15.5 µM (inactive)
same,GI50,MCF7,18.9 µM (inactive)
same,GI50,MDA-MB-231,20.3 µM (inactive)
same,GI50,MDA-MB-435,4.15 µM (inactive)
same,GI50,MDA-N,3.77 µM (inactive)
same,GI50,MOLT-4,19.7 µM (inactive)
same,GI50,Malme-3M,23.5 µM (inactive)
same,GI50,NCI-H226,45.8 µM (inactive)
same,GI50,NCI-H23,30.1 µM (inactive)
same,GI50,NCI-H460,28.6 µM (inactive)
same,GI50,NCI-H522,27.9 µM (inactive)
same,GI50,NCI/ADR-RES,18.2 µM (inactive)
same,GI50,OVCAR-3,18.2 µM (inactive)
same,GI50,OVCAR-4,58.7 µM (inactive)
same,GI50,OVCAR-5,50.9 µM (inactive)
same,GI50,OVCAR-8,24 µM (inactive)
same,GI50,PC-3,20.3 µM (inactive)
same,GI50,RPMI-8226,21 µM (inactive)
same,GI50,RXF 393,20 µM (inactive)
same,GI50,SF-268,55.6 µM (inactive)
same,GI50,SF-295,21.4 µM (inactive)
same,GI50,SF-539,18.7 µM (inactive)
same,GI50,SK-MEL-28,26.7 µM (inactive)
same,GI50,SK-MEL-2,61.8 µM (inactive)
same,GI50,SK-MEL-5,10.5 µM (inactive)
same,GI50,SK-OV-3,32.1 µM (inactive)
same,GI50,SN12C,26.3 µM (inactive)
same,GI50,SNB-19,27.6 µM (inactive)
same,GI50,SNB-75,18.7 µM (inactive)
same,GI50,SR,40.8 µM (inactive)
same,GI50,SW-620,15.9 µM (inactive)
same,GI50,T47D,66.4 µM (inactive)
same,GI50,TK-10,42.8 µM (inactive)
same,GI50,U-251,24.4 µM (inactive)
same,GI50,UACC-257,36.1 µM (inactive)
same,GI50,UACC-62,24.6 µM (inactive)
same,GI50,UO-31,32.2 µM (inactive)
[N-]=[N+]=NCC1OC(n2cnc3c(N)ncnc32)C2OC12 (configuration not stated),GI50,786-0,> 100 µM (inactive)
same,GI50,A498,> 100 µM (inactive)
same,GI50,A549,> 100 µM (inactive)
same,GI50,ACHN,> 100 µM (inactive)
same,GI50,BT-549,> 100 µM (inactive)
same,GI50,CAKI-1,> 100 µM (inactive)
same,GI50,CCRF-CEM,> 100 µM (inactive)
same,GI50,COLO 205,> 100 µM (inactive)
same,GI50,DU-145,> 100 µM (inactive)
same,GI50,EKVX,> 100 µM (inactive)
same,GI50,HCC 2998,> 100 µM (inactive)
same,GI50,HCT-116,> 100 µM (inactive)
same,GI50,HCT-15,> 100 µM
same,GI50,HL-60,> 100 µM (inactive)
same,GI50,HOP-62,> 100 µM (inactive)
same,GI50,HOP-92,> 100 µM (inactive)
same,GI50,HT-29,> 100 µM (inactive)
same,GI50,Hs-578T,> 100 µM (inactive)
same,GI50,IGROV-1,> 100 µM (inactive)
same,GI50,K562,> 100 µM (inactive)
same,GI50,KM12,> 100 µM (inactive)
same,GI50,LOX IMVI,> 100 µM (inactive)
same,GI50,M14,> 100 µM (inactive)
same,GI50,MCF7,> 100 µM (inactive)
same,GI50,MDA-MB-231,> 100 µM (inactive)
same,GI50,MDA-MB-435,> 100 µM (inactive)
same,GI50,MDA-N,> 100 µM (inactive)
same,GI50,MOLT-4,> 100 µM (inactive)
same,GI50,Malme-3M,> 100 µM (inactive)
same,GI50,NCI-H226,> 100 µM (inactive)
same,GI50,NCI-H23,> 100 µM (inactive)
same,GI50,NCI-H460,> 100 µM (inactive)
same,GI50,NCI-H522,> 100 µM (inactive)
same,GI50,NCI/ADR-RES,> 100 µM (inactive)
same,GI50,OVCAR-3,> 100 µM (inactive)
same,GI50,OVCAR-4,> 100 µM (inactive)
same,GI50,OVCAR-5,> 100 µM (inactive)
same,GI50,OVCAR-8,> 100 µM (inactive)
same,GI50,PC-3,> 100 µM (inactive)
same,GI50,RPMI-8226,> 100 µM (inactive)
same,GI50,RXF 393,> 100 µM (inactive)
same,GI50,SF-268,> 100 µM (inactive)
same,GI50,SF-295,> 100 µM (inactive)
same,GI50,SF-539,> 100 µM (inactive)
same,GI50,SK-MEL-28,> 100 µM (inactive)
same,GI50,SK-MEL-2,> 100 µM (inactive)
same,GI50,SK-MEL-5,> 100 µM (inactive)
same,GI50,SK-OV-3,> 100 µM (inactive)
same,GI50,SN12C,> 100 µM (inactive)
same,GI50,SNB-19,> 100 µM (inactive)
same,GI50,SNB-75,> 100 µM (inactive)
same,GI50,SR,> 100 µM (inactive)
same,GI50,SW-620,> 100 µM (inactive)
same,GI50,T47D,> 100 µM (inactive)
same,GI50,TK-10,> 100 µM (inactive)
same,GI50,U-251,> 100 µM (inactive)
same,GI50,UACC-257,> 100 µM (inactive)
same,GI50,UACC-62,> 100 µM (inactive)
same,GI50,UO-31,> 100 µM (inactive)
COc1cc2c(cc1C[N+](C)(C)CSc1ccccc1)-c1ccccc1CC2,GI50,786-0,6.07 µM (inactive)
same,GI50,A498,18.5 µM (inactive)
same,GI50,A549,19 µM (inactive)
same,GI50,ACHN,15.3 µM (inactive)
same,GI50,BT-549,3.89 µM (inactive)
same,GI50,CAKI-1,13.5 µM (inactive)
same,GI50,CCRF-CEM,3.64 µM (inactive)
same,GI50,COLO 205,1.75 µM (inactive)
same,GI50,DU-145,8.61 µM (inactive)
same,GI50,EKVX,10.6 µM (inactive)
same,GI50,HCC 2998,4.31 µM (inactive)
same,GI50,HCT-116,2.24 µM (inactive)
same,GI50,HCT-15,16.5 µM
same,GI50,HL-60,0.721 µM (active)
same,GI50,HOP-62,11.4 µM (inactive)
same,GI50,HOP-92,8.51 µM (inactive)
same,GI50,HT-29,2.25 µM (inactive)
same,GI50,Hs-578T,4.99 µM (inactive)
same,GI50,IGROV-1,2.47 µM (inactive)
same,GI50,K562,2.18 µM (inactive)
same,GI50,KM12,2.2 µM (inactive)
same,GI50,LOX IMVI,4 µM (inactive)
same,GI50,M14,2.07 µM (inactive)
same,GI50,MCF7,5 µM (inactive)
same,GI50,MDA-MB-231,2.86 µM (inactive)
same,GI50,MDA-MB-435,3.18 µM (inactive)
same,GI50,MDA-N,1.77 µM (inactive)
same,GI50,MOLT-4,2.33 µM (inactive)
same,GI50,Malme-3M,1.71 µM (inactive)
same,GI50,NCI-H226,9.02 µM (inactive)
same,GI50,NCI-H23,3.76 µM (inactive)
same,GI50,NCI-H460,3.29 µM (inactive)
same,GI50,NCI-H522,2.01 µM (inactive)
same,GI50,NCI/ADR-RES,37.5 µM (inactive)
same,GI50,OVCAR-3,2.29 µM (inactive)
same,GI50,OVCAR-4,5.98 µM (inactive)
same,GI50,OVCAR-5,12 µM (inactive)
same,GI50,OVCAR-8,3.9 µM (inactive)
same,GI50,PC-3,2.61 µM (inactive)
same,GI50,RPMI-8226,1.57 µM (inactive)
same,GI50,RXF 393,6.53 µM (inactive)
same,GI50,SF-268,5.32 µM (inactive)
same,GI50,SF-295,12.2 µM (inactive)
same,GI50,SF-539,7.96 µM (inactive)
same,GI50,SK-MEL-28,4.31 µM (inactive)
same,GI50,SK-MEL-2,2 µM (inactive)
same,GI50,SK-MEL-5,1.17 µM (inactive)
same,GI50,SK-OV-3,12.6 µM (inactive)
same,GI50,SN12C,6.21 µM (inactive)
same,GI50,SNB-19,4.28 µM (inactive)
same,GI50,SNB-75,1.19 µM (inactive)
same,GI50,SR,2.01 µM (inactive)
same,GI50,SW-620,10.4 µM (inactive)
same,GI50,T47D,2.91 µM (inactive)
same,GI50,TK-10,8.77 µM (inactive)
same,GI50,U-251,4.14 µM (inactive)
same,GI50,UACC-257,2.52 µM (inactive)
same,GI50,UACC-62,2.52 µM (inactive)
same,GI50,UO-31,15.2 µM (inactive)
